Consider 20 compounds from ChEMBL document CHEMBL5550113, “Bioisoteres for carboxylic acids: From ionized isosteres to novel unionized replacements” (Bioorg Med Chem, 2024).

Chain of CDK12/Cyclin K (O75909 whole entry): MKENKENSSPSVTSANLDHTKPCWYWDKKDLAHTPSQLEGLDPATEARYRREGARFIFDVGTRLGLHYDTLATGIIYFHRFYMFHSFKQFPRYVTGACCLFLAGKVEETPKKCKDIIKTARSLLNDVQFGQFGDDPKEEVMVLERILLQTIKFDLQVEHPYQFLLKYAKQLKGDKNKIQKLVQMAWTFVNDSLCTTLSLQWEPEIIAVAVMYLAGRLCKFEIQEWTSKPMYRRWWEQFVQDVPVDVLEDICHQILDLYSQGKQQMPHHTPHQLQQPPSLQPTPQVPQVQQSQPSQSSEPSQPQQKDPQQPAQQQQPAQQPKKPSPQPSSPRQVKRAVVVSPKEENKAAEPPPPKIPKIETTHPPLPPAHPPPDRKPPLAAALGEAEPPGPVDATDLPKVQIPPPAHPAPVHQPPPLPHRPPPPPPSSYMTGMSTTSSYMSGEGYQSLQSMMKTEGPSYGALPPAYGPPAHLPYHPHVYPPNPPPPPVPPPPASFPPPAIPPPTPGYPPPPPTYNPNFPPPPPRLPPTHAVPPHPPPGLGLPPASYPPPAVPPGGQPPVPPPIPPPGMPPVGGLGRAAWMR
Chain of CDK12/Cyclin K (Q9NYV4 whole entry): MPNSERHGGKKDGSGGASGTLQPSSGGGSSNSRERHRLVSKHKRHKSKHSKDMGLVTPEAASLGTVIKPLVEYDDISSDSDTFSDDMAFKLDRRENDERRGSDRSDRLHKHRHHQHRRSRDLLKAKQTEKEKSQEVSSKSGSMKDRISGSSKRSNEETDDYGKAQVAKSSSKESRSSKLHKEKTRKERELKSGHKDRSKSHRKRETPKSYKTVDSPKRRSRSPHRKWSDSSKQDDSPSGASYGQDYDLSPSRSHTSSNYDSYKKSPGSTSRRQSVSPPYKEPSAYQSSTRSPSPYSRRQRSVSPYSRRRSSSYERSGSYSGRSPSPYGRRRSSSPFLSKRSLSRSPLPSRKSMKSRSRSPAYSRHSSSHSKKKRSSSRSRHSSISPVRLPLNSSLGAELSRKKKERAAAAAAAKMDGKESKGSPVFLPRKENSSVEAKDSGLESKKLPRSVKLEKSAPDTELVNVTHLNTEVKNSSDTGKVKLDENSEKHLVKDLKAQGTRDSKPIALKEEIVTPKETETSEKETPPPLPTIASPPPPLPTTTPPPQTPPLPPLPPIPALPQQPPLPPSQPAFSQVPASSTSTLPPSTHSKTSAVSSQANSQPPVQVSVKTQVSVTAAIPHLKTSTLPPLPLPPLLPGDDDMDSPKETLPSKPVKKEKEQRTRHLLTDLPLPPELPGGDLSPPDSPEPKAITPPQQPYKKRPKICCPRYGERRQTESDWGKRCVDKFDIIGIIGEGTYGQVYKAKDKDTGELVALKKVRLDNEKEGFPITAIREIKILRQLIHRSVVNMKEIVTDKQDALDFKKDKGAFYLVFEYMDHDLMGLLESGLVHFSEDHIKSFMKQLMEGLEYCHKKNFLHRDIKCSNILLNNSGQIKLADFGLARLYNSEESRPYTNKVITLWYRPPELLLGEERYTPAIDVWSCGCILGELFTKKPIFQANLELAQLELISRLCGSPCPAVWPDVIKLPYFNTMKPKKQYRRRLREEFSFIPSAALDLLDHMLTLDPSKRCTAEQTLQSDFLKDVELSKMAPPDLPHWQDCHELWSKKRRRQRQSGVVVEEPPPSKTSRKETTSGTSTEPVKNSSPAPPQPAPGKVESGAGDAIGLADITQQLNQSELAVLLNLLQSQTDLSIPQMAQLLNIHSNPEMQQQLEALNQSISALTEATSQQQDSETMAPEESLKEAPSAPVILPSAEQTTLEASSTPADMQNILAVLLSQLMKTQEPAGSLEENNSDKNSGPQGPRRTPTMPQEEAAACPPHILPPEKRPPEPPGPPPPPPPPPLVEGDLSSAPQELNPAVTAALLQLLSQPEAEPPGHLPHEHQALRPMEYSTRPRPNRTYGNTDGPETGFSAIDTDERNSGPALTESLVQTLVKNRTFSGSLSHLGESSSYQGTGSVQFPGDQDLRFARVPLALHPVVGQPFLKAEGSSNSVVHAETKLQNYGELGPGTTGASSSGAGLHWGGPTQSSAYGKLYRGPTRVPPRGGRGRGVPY

System in the first data set: not listed separately
Kind of data set: Toxicity in po dosed Guinea pig assessed as effective dose. To be noted: in vivo. The class given is organism-based, Cavia porcellus.
What is called ED50 is the midpoint of the dose-response relation. On to `COc1cc(C(=O)NS(=O)(=O)c2ccccc2)ccc1Cc1cn(C)c2ccc(NC(=O)OC3CCCC3)cc12`, for which the ED50 stood at 2.5 mg/kg. Still for that read-out and setting: then `COc1cc(C(=O)NS(=O)(=O)c2ccccc2C)ccc1Cc1cn(C)c2ccc(NC(=O)OC3CCCC3)cc12` [ZAFIRLUKAST], with 0.3 mg/kg.

The next data set addresses CDK12/Cyclin K (Homo sapiens, UniProt Q9NYV4). The experiment in a line: Inhibition of 6His-tagged wild type CDK12/cyclin K (unknown origin) infected in insect cells incubated for 1 hr by TR-FRET assay.
Conditions: not given
Background: Time-resolved FRET reads energy transfer from a long-lived donor to a nearby acceptor.
The EC50 is the concentration giving half of the maximal effect. With `CC[C@H](CO)Nc1nc(NCCCc2ccnn2C)c2ncn(C(C)C)c2n1`, the midpoint of the response, the EC50, lay at 246 nM. The compound `CC[C@H](CO)Nc1nc(NCc2ccc(-c3ccc(C)s3)cc2)c2ncn(C(C)C)c2n1` displayed an EC50 of 15 nM. The compound `CC[C@H](CO)Nc1nc(NCc2ccc(-c3ccccc3)cc2)c2ncn(C(C)C)c2n1` gave an EC50 of 17 nM. Regarding `CC[C@H](CO)Nc1nc(NCCCc2ccccc2)c2ncn(C(C)C)c2n1`, a half-maximal response (EC50) required 57 nM. Still for that read-out and setting: then `CC[C@H](CO)Nc1nc(NCCCc2ccco2)c2ncn(C(C)C)c2n1`, with 603 nM.

For the compound `CC[C@H](CO)Nc1nc(NCCCc2cccc(C)n2)c2ncn(C(C)C)c2n1`, the response was half-maximal at 36 nM (EC50). Against the preceding compound, the EC50 is about 17-fold lower. For `CC[C@H](CO)Nc1nc(NCc2ccc(-c3ccncc3)cc2)c2ncn(C(C)C)c2n1`, it took 36 nM to reach a half-maximal effect (EC50). As to `CC[C@H](CO)Nc1nc(NCc2nc3ccc(F)c(F)c3[nH]2)c2ncn(C(C)C)c2n1`, the response was half-maximal at 41 nM (EC50).

Compound `CC[C@H](CO)Nc1nc(NCCCc2ccc(C)c(C)c2)c2ncn(C(C)C)c2n1` came in with an EC50 of 18 nM. Still for that read-out and setting: then `CC[C@H](CO)Nc1nc(NCCCc2cccc(C)c2)c2ncn(C(C)C)c2n1`, with 35 nM; and `CC[C@H](CO)Nc1nc(NCCCc2ccc(Cl)c(Cl)c2)c2ncn(C(C)C)c2n1`, with 21 nM; and `CC[C@H](CO)Nc1nc(NCCCCCc2cccc3ccccc23)c2ncn(C(C)C)c2n1`, with 182 nM.

Consider `CC[C@H](CO)Nc1nc(NCCCc2cccc(F)c2)c2ncn(C(C)C)c2n1`, for which a half-maximal effect (EC50) was put at 46 nM. On the same count and under the same terms, then `CC[C@H](CO)Nc1nc(NCc2ccc3ccccc3c2)c2ncn(C(C)C)c2n1`, with 60 nM; and `CC[C@H](CO)Nc1nc(NCc2ccn(-c3cccc(Cl)c3)n2)c2ncn(C(C)C)c2n1`, with 44 nM. On the same count and under the same terms, then `CC[C@H](CO)Nc1nc(NCc2ccc(-c3ccncc3)nc2)c2ncn(C(C)C)c2n1`, with 28 nM. The same measure, in the same setting: then `CC[C@H](CO)Nc1nc(NCc2ccc(-c3ccccn3)c(=O)[nH]2)c2ncn(C(C)C)c2n1`, with 21 nM.

As to `CC[C@H](CO)Nc1nc(NCc2ccc(-c3ccccn3)c(F)c2)c2ncn(C(C)C)c2n1`, a half-maximal effect (EC50) was put at 78 nM.

For another data set, the species on record is Cavia porcellus. Kind of data set: Binding affinity to Guinea pig Leukotriene receptor. To be noted: filed as antagonist.
Broadly, the pKb is −log10 of the Kb, conventionally taken in molar units. For `COc1cc(C(=O)NS(=O)(=O)c2ccccc2)ccc1Cc1cn(C)c2ccc(NC(=O)OC3CCCC3)cc12`, the pKb turned out to be 9.69.
